{"source": "paper PMC4136845", "about": "“Evaluation of Antimalarial Activity and Toxicity of a New Primaquine Prodrug” (PLoS ONE, 2014)", "key": {"[1]": {"test": "Partition coefficient (log P) by HPLC method, OECD guideline", "details": "HPLC method", "experimental": "A Waters Alliance HPLC system equipped with a UV-Vis 2487 detector was employed. The chromatographic analysis was performed on a Symmetry C18 HPLC column (4.6 mm×250 mm, 5 µm particle size) and the mobile phase was methanol:water (70∶30), with detection at 256 nm. A flow rate of 1.0 mL/min was used and 50-µL samples were injected into the chromatographic system. The run time was approximately 15 min. The analytical curve was constructed on the basis of the retention time of the standards (purchased from Sigma Aldrich, NJ, USA) butanone, acetanilide, phenol, phenacetin, benzene, toluene, chlorobenzene and thymol, dissolved in mobile phase at a concentration of 50 µg/mL. The substances were analyzed in triplicate and the average retention time for each standard was used. The capacity factor (k) was obtained by the equation [20]: k = (tR - t0) /t0, where tR is the retention time of the test substance and t0 the dead-time. The log k values were correlated with the partition coefficients of the standards for construction of the analytical curve. […] The coefficient of determination (r^2) was also calculated to evaluate the linearity of the analytical curve."}, "male Wistar rats": {"test_system": "male Wistar rats", "test": "Hemogram of rats treated with multiple doses", "details": "gavage four times a day for 4 days, PQ 2.44 mg/kg free base, Phe-Ala-PQ 9.00 mg/kg, mean (CI 95)", "experimental": "The biochemical, hematological and histopathological analyses were carried out in male Wistar rats (weighing 200–250 g). They were housed in wire cages, five animals per cage, with free access to food and water. The study protocol was approved by The Research Ethics Committee of the School of Pharmaceutical Sciences, UNESP, Araraquara (process 06/2009). […] After treatment with the drugs, the animals were decapitated for collection of blood and samples of liver and kidneys (preserved in 10% formaldehyde).\nIn biochemical analysis, aspartate aminotransferase (AST), alanine aminotransferase (ALT), gamma-glutamyltransferase (GGT), bilirubin, creatinine and urea kits were purchased from LabTest Diagnostica SA (Lagoa Santa,Minas Gerais, Brazil). Alkaline phosphatase (ALP) was assayed by the conversion of p-nitrophenyl phosphate to p-nitrophenol in a kinetic reaction, measured with a spectrophotometer at 405 nm. To determine the level of methemoglobin in relation to oxyhemoglobin, we used the method described by Naoum and collaborators. The blood was hemolyzed and the hemoglobin stabilized in 60 mM phosphate buffer, pH 6.8. The levels of methemoglobin and oxyhemoglobin were determined by spectrophotometric absorption at 630 and 540 nm. The total and differential white blood cell (WBC) counts were performed using a Neubauer chamber and blood smears, respectively. The hematocrit was determined using conventional method by microcapillary centrifugation."}, "[2]": {"test_system": "monkey kidney cell line (BGM)", "test": "In vitro cytotoxicity, MTT assay, BGM cells", "experimental": "The HepG2 (ATCC HB-8065) was originally received from the New University of Lisbon, Portugal, and BGM received as a gift from the Federal University of Minas Gerais and originally purchased from Rio de Janeiro Cell Bank (BCRJ 0049). When confluent, the cells were washed with RPMI culture medium, then trypsinized, distributed in a flat-bottom 96-well plate (5×10^3 cells/well), and incubated for 18 h at 37°C for cell adherence as described elsewhere. The compound (20 µL) was added to each well at various concentrations (1-1000 µg/mL) and the plate incubated for 24 h in a 5% CO2 atmosphere at 37°C. MTT [3-(4,5-dimethylthiazol-2-yl)-2,5-diphenyltetrazolium bromide] (5 mg/mL; 20 µL/well) was added to evaluate mitochondrial viability, and the plates were incubated again for 3 h, under the same culture conditions. The supernatant was carefully removed, and 100 µL of DMSO were added with mixing to dissolve the formazan crystals formed. The optical density was determined at 570 and 630 nm (background) (SpectraMax 340PC 384, Molecular Devices). Cell viability was expressed as the percentage of the control absorbance of the untreated cells after subtracting the appropriate background. The minimum lethal dose for 50% of the cells (MLD50) was determined as previously described."}, "[3]": {"test_system": "G6PD-deficient human red blood cells", "test": "In vitro hemolysis assay", "quoted_text": "The hemolytic rate was calculated using 0.05% saponin as the positive control for hemolysis of human RBC, which was considered 100% [24], [25]. The diagnosis of G6PD deficiency was performed using a technique based on the principle that hemoglobin oxidized to methemoglobin, by the action of sodium nitrite, is catalyzed by an enzyme, in the presence of methylene blue [26]. […] All participants signed a written informed consent before blood collection. The consent was approved by the Ethics Committee of CEPEM."}}, "note": "Values joined by “and” are separate entries in the source; they are usually repeats but may differ in a detail not shown here. Equal values may be shown once. Marks after values point to notes of the source that are not given here.", "data": [{"smiles": "COc1cc(NC(C)CCCNC(=O)[C@H](C)NC(=O)[C@@H](N)Cc2ccccc2)c2ncccc2c1", "note": "(stereo partly drawn) [Phe-Ala-PQ, phenylalanine-alanine-primaquine]", "values": [{"measurement": "log P", "setting": "[1]", "result": 0.94}, {"measurement": "Eosinophils Absolute (No. cells)", "setting": "male Wistar rats", "result": "40 (0–152) No. cells"}, {"measurement": "Eosinophils Relative (%)", "setting": "male Wistar rats", "result": "0.40 (0.00–1.51) %"}, {"measurement": "Hematocrit", "setting": "male Wistar rats", "result": "47 (45–48) %"}, {"measurement": "Hemoglobin", "setting": "male Wistar rats", "result": "11.76 (11.38–12.14)"}, {"measurement": "Leukocytes", "setting": "male Wistar rats", "result": "8700 ^a ^, ^b (5623–11777) /mm^3"}, {"measurement": "Lymphocytes Absolute (No. cells)", "setting": "male Wistar rats", "result": "7691 ^a ^, ^b (5947–9976) No. cells"}, {"measurement": "Lymphocytes Relative (%)", "setting": "male Wistar rats", "result": "83.0 ^a (75.8–90.2) %"}, {"measurement": "Methemoglobin", "setting": "male Wistar rats", "result": "3.65 (3.45–3.85) %"}, {"measurement": "Monocytes Absolute (No. cells)", "setting": "male Wistar rats", "result": "812 ^b (0–1728) No. cells"}, {"measurement": "Monocytes Relative (%)", "setting": "male Wistar rats", "result": "7.60 ^b (0.06–15.1) %"}, {"measurement": "Neutrophils Band Absolute (No. cells)", "setting": "male Wistar rats", "result": 0, "unit": "No. cells"}, {"measurement": "Neutrophils Band Relative (%)", "setting": "male Wistar rats", "result": 0, "unit": "%"}, {"measurement": "Neutrophils Segmented Absolute (No. cells)", "setting": "male Wistar rats", "result": "895 (163–1626) No. cells"}, {"measurement": "Neutrophils Segmented Relative (%)", "setting": "male Wistar rats", "result": "9.00 ^a (2.55–15.4) %"}, {"measurement": "MDL50 BGM, PQ equivalents", "setting": "[2]; MTT, 24 h, expressed as PQ equivalents", "result": 110, "unit": "µg/mL"}, {"measurement": "MDL50 (Mean±SD) BGM", "setting": "[2]; MTT, 24 h incubation", "result": "580 µg/mL and 580 ± 86 µg/mL"}, {"measurement": "Toxicity to BGM cells compared to PQ", "setting": "[2]; ratio of MDL50 values", "result": "about two times less toxic"}, {"measurement": "Hemolysis %", "setting": "[3]; 125 µg/mL (Phe-Ala-PQ: 23.7 µg/mL PQ equivalents)", "result": 0, "unit": "%"}, {"measurement": "Hemolysis %", "setting": "[3]; 500 µg/mL (Phe-Ala-PQ: 95 µg/mL PQ equivalents)", "result": 51, "unit": "%"}, {"measurement": "Hemolysis", "setting": "[3]; concentrations equal to or less than 250 µg/mL (47.5 µg/mL PQ equivalents)", "result": "did not cause hemolysis"}]}]}
